Results taken from PubChem BioAssay (NCI).
Several values for one entry are separate records, joined by “and”; a condition that tells them apart may be missing. Equal values may be shown once.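 Method: 48-hour compound exposure of cells in 96-well plates, five concentrations, linear interpolation of endpoints. Abbreviation: GI50, concentration required for 50% inhibition of growth. Definition used: TGI = concentration required for complete inhibition of growth.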

How the values were obtained:
Experiment in all cases: NCI anticancer screen, dose series, 48 h
KM12 colon = test system: KM12 colon
OVCAR-4 ovarian = test system: OVCAR-4 ovarian
HS 578T breast = test system: HS 578T breast
HOP-62 NSCLC = test system: HOP-62 NSCLC
OVCAR-8 ovarian = test system: OVCAR-8 ovarian
CAKI-1 renal = test system: CAKI-1 renal
CCRF-CEM leukemia = test system: CCRF-CEM leukemia

Row | SMILES | GI50 (KM12 colon) | TGI (KM12 colon) | GI50 (OVCAR-4 ovarian) | TGI (OVCAR-4 ovarian) | GI50 (HS 578T breast) | TGI (HS 578T breast) | GI50 (HOP-62 NSCLC) | TGI (HOP-62 NSCLC) | GI50 (OVCAR-8 ovarian) | TGI (OVCAR-8 ovarian) | GI50 (CAKI-1 renal) | TGI (CAKI-1 renal) | GI50 (CCRF-CEM leukemia) | TGI (CCRF-CEM leukemia)
1 | CC(=O)Oc1ccc(C2(c3ccc(OC(C)=O)cc3)C(=O)Nc3ccccc32)cc1 | 12.7 µM and 12.6 µM | > 62.7 µM and 51.7 µM | 0.0347 µM and 0.0389 µM | 1.42 µM | 0.0651 µM and 0.153 µM | 0.484 µM and 0.7 µM | 34.7 µM and 35.1 µM | > 100 µM | 0.292 µM and 0.408 µM | > 100 µM | 31.4 µM and 31.8 µM | > 100 µM | 25.7 µM and 28.6 µM | > 100 µM and 99.3 µM
2 | C1=C2CNCC3=Cc4ccc5ccccc5c4OC23Oc2c1ccc1ccccc21 | 3.83 µM | 16.3 µM | 4.71 µM | 19.8 µM | 2.24 µM | 10.4 µM | 4.47 µM | 16.7 µM | 2.99 µM | 14.9 µM | 3.29 µM | 20.7 µM | 3.65 µM | > 100 µM
3 | O=C(O)C1C2C=CC(O2)C1C(=O)Nc1ncccn1 (stereo not drawn) | – | > 100 µM | – | > 100 µM | – | > 100 µM | – | > 100 µM | – | > 100 µM | – | > 100 µM | – | > 100 µM
4 | COc1ccc2cc(-c3c(-c4ccncc4)nc(-c4ccc(S(C)=O)cc4C)n3C)ccc2c1 (stereo not drawn) | > 22.3 µM | > 25 µM | 16.3 µM | > 25 µM | > 25 µM | > 25 µM | 24.7 µM | > 25 µM | 24.7 µM | > 25 µM | 6.98 µM | > 25 µM | > 25 µM | > 25 µM
5 | C/C(=N\n1c(N)c(C#N)c(-c2ccc(Cl)cc2)c(C#N)c1=O)c1ccncc1 | – | – | 11.1 µM | 43.6 µM | 6.4 µM | 75.8 µM | 16.9 µM | 48.8 µM | 2.95 µM | 12.4 µM | 16.7 µM | > 100 µM | > 100 µM | > 100 µM
6 | Cn1cnc([N+](=O)[O-])c1Sc1nc(N)nc2nc[nH]c12 | 3.94 µM | > 100 µM | 4.38 µM | > 100 µM | 14.5 µM | > 100 µM | 1.22 µM | > 100 µM | 3.68 µM | > 100 µM | 2.72 µM | > 100 µM | 3.01 µM | > 100 µM
7 | NC(N)=N/N=C/c1c(-c2ccc(Cl)c([N+](=O)[O-])c2)nc2n1CCS2 | 12.4 µM | 25.7 µM | 14.7 µM | 32.8 µM | – | – | 2.83 µM | 9.44 µM | 8.89 µM | > 100 µM | 13.5 µM | 28 µM | 2.6 µM | 9.93 µM
8 | COc1ccc(-c2nc3c(c(=O)n2C(C)=O)C(c2ccc(Cl)cc2)c2sc4c(Cl)cccc4c2O3)cc1 (stereo not drawn) | 0.349 µM | 1.91 µM | 0.845 µM | 3.66 µM | 0.521 µM | 4.44 µM | 0.275 µM | 1.96 µM | 0.5 µM | 2.37 µM | 0.49 µM | 4.16 µM | 0.462 µM | 6.28 µM
9 | Cn1cc(CO)c2ccccc21 | 15.9 µM | 88.5 µM | 56.5 µM | > 100 µM | 38.5 µM | > 100 µM | 73.8 µM | > 100 µM | > 100 µM | > 100 µM | 18.3 µM | > 100 µM | > 100 µM | > 100 µM
10 | CC(=O)[CH-]C(=O)c1ccccc1.CC(=O)[CH-]C(=O)c1ccccc1.[CH2-]CCC.[CH2-]CCC.[Sn+4] | 1.41 µM | 2.76 µM | – | – | – | – | – | – | 1.36 µM | 3.1 µM | 0.322 µM | 1.22 µM | 0.261 µM | 0.745 µM
11 | Cc1n(Cc2ccc3ccccc3c2)c(Cl)c(Cl)[n+]1Cc1ccc2ccccc2c1 | 1.71 µM | 3.24 µM | 1.39 µM | 2.76 µM | 1.54 µM | 3.79 µM | 1.79 µM | 3.81 µM | – | – | 1.85 µM | 4.67 µM | 1.96 µM | 6.05 µM
12 | C=C(CNCCc1ccc(O)cc1)[C@@H]1CC[C@]2(CO)CC[C@]3(C)[C@H](CC[C@@H]4[C@@]5(C)CCC(N)C(C)(C)[C@@H]5CC[C@]43C)[C@@H]12 (stereo partly drawn) | 1.48 µM | 2.96 µM | 1.44 µM | 2.95 µM | – | – | 1.73 µM | 3.36 µM | 0.0235 µM | 1.39 µM | 1.59 µM | 3.1 µM | 0.28 µM | 1.23 µM
13 | O=c1[nH]c2cc(Cl)c(Cl)cc2n2cc3ccccc3c12 | 17.3 µM | 31.1 µM | 20.3 µM | 49.8 µM | 20.1 µM | 53 µM | – | – | 18.4 µM | 32.4 µM | 20.6 µM | 34.9 µM | 22.1 µM | 48.9 µM
14 | CCN(CC)CCOc1ccc(/C=C2\CC3C4CC=C5C[C@@H](OC(C)=O)CC[C@]5(C)C4CC[C@]3(C)C2=O)cc1OC (stereo partly drawn) | 1.99 µM | 4.18 µM | 20.9 µM | > 100 µM | 7.77 µM | 25.7 µM | 4.34 µM | 16.8 µM | 20 µM | 49 µM | 0.429 µM | 2.52 µM | – | –
15 | CCC(=O)c1cc([N+](=O)[O-])c(Br)s1 | 11.6 µM | 24.2 µM | 1.86 µM | 3.65 µM | 19.5 µM | 85 µM | 2.25 µM | 4.54 µM | 2.23 µM | 5.04 µM | 1.66 µM | 3.41 µM | – | –
16 | COc1ccc(-c2cc(/C=C/C(=O)c3cc(OC)c(OC)c(OC)c3)[nH]n2)cc1OC | 0.78 µM | 2.27 µM | 1.62 µM | 7.17 µM | 2.91 µM | 22.2 µM | 1.45 µM | 3.59 µM | 2.56 µM | 11.7 µM | – | – | 0.342 µM | 3.13 µM
17 | Cc1ccc(-n2c3c(c4c(CN5CCOCC5)c(O)ccc42)CCc2ccccc2C3=O)cc1 | > 100 µM | > 100 µM | – | – | > 100 µM | > 100 µM | > 100 µM | > 100 µM | 90.7 µM | > 100 µM | 94.1 µM | > 100 µM | – | –
18 | c1cnc2[nH]cc(-c3csc(-c4cn(CCCN5CCCCC5)c5ccccc45)n3)c2c1 | 1.61 µM | 3.13 µM | 1.82 µM | 4.19 µM | 2.34 µM | 7.22 µM | 1.47 µM | 3.02 µM | – | – | – | – | – | –
19 | O=C(/C=C/c1cn(-c2ccccc2)nc1-c1ccc([N+](=O)[O-])cc1)c1ccc(Cl)cc1 | – | – | – | – | 1.92 µM | 5.64 µM | 14.9 µM | 51.1 µM | 6.33 µM | > 100 µM | > 21.3 µM | > 100 µM | – | –
20 | Cc1cc(=O)oc2cc(OCCn3c(C)nn(-c4ccc(Cl)cc4)c3=O)ccc12 | 1.66 µM | > 100 µM | – | – | 2.82 µM | > 100 µM | 3.05 µM | 32.9 µM | 5.17 µM | > 100 µM | > 100 µM | > 100 µM | – | –
21 | COc1cc2nnn3c4ncccc4c(N=O)c3c2cc1OC | 2.46 µM | > 100 µM | 3.23 µM | > 100 µM | 4.82 µM | > 100 µM | 6.71 µM | 16.8 µM | 1.77 µM | > 100 µM | 0.131 µM | 1.27 µM | – | –
22 | O=C(Nc1cc(S(=O)(=O)c2ccc(Cl)cc2)ccc1Cl)c1cc(I)cc(I)c1O | 14.2 µM | 27.4 µM | 17.2 µM | 33.5 µM | 17.8 µM | 47.6 µM | 18.6 µM | 34.1 µM | 18.6 µM | 41.7 µM | 20.3 µM | 38.2 µM | – | –
23 | Nc1ccn([C@@H]2C(F)=C(CO)[C@@H](O)[C@H]2O)c(=O)n1 | 0.65 µM | > 100 µM | 23.2 µM | > 100 µM | 12.3 µM | > 100 µM | – | – | 0.551 µM | > 100 µM | 7.1 µM | > 100 µM | – | –
24 | CC12OC(C(=O)C13CCC3)C1C(=O)c3ccccc3C(=O)C12 (stereo not drawn) | 32.4 µM | > 100 µM | – | – | > 100 µM | > 100 µM | > 100 µM | > 100 µM | 61.8 µM | > 100 µM | 32.7 µM | > 100 µM | 36.9 µM | > 100 µM
25 | NC(=O)c1cc(I)ccc1NC(=O)COc1ccccc1 | 0.328 µM | > 100 µM | – | – | 0.462 µM | 36.1 µM | 0.598 µM | 12.4 µM | 0.876 µM | > 100 µM | 0.547 µM | > 100 µM | 0.463 µM | > 100 µM
26 | COc1ccc(C2ONC3=NCCN32)cc1 (stereo not drawn) | 54.7 µM | > 100 µM | > 100 µM | > 100 µM | – | – | 84.9 µM | > 100 µM | 67.7 µM | > 100 µM | 48.2 µM | > 100 µM | 26.6 µM | 61.7 µM
27 | COc1cc(O)c(C(C)=O)c(O)c1 | – | > 100 µM | – | > 100 µM | – | > 100 µM | – | > 100 µM | – | > 100 µM | – | – | – | –
28 | c1ccc(CC(NCCNC(Cc2ccccc2)c2ccccc2)c2ccccc2)cc1 (stereo not drawn) | 0.384 µM | 1.52 µM | 0.415 µM | 2.02 µM | 1.64 µM | 4.12 µM | 1.17 µM | 2.86 µM | – | – | 0.456 µM | 2.44 µM | 0.49 µM | 2.57 µM
